# Molecular target: T1, HDAC6 enzyme (Homo sapiens, UniProt Q9UBN7)
# T1 construct: transducing full length HDAC6 gene into Sf-9 insect cells; GST; purchased SignalChem; host or cells: Sf-9 insect cells
# T1 sequence (Q9UBN7 1-1215): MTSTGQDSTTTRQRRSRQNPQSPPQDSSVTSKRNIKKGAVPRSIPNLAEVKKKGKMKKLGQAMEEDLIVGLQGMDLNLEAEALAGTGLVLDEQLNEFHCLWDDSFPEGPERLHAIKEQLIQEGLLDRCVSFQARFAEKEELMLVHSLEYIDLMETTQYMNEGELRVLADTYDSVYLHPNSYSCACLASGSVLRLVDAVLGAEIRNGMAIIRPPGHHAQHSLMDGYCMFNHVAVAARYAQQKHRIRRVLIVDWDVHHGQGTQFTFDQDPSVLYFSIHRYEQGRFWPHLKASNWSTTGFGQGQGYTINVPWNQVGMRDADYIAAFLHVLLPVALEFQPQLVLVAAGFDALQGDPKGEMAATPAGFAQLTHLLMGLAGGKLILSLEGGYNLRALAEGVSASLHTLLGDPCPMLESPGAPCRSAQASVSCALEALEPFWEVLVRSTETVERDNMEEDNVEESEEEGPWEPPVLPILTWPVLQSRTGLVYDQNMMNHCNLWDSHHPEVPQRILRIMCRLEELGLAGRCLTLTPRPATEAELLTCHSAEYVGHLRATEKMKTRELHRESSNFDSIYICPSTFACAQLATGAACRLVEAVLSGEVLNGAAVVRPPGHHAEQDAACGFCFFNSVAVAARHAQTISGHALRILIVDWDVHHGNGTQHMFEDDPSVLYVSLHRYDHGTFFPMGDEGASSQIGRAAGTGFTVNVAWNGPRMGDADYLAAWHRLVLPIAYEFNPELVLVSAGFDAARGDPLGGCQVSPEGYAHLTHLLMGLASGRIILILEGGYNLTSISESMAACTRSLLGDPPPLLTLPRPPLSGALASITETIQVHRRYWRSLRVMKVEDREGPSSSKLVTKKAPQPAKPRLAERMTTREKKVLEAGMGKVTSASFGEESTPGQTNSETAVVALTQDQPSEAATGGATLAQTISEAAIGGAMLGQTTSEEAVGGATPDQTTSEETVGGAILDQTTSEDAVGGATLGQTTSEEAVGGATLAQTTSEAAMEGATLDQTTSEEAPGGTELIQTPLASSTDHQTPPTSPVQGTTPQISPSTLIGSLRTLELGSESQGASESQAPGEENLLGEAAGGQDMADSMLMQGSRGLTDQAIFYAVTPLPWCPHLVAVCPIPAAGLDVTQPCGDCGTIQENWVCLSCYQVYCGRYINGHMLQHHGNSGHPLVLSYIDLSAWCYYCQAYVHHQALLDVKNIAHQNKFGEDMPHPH
# Test: HDAC6 enzyme inhibitory activity (HDAC-Glo I/II Assay kit)
# Format: biochemical
# Conditions: 10 μM; wells without enzyme = 100% inhibition; read-out: HDAC6 inhibitory rate (%) (10 μM)
# Outline: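 Inhibition is calculated as relative activity, taking luminescence in enzyme-free wells as complete inhibition. The enzyme, full-length and GST-purified after Sf-9 expression, was exposed to compound for 60 min at room temperature before a 20 min HDAC-Glo reaction.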
row,Structure (SMILES),inhibition at 10 µM [%]
1,"N#Cc1cccc(-c2cc(F)ccc2N2Cc3ccc(-c4nnc(C(F)F)o4)cc3C2=O)c1 [Example 249, 2′-(6-(5-(difluoromethyl)-1,3,4-oxadiazol-2-yl)-1-oxo-1,3-dihydro-2H-isoindol-2-yl)-5′-fluorobiphenyl-3-carbonitrile]",100
2,"Cn1cc(Br)c(N2Cc3ccc(-c4nnc(C(F)F)o4)cc3C2=O)n1 [Example 250, 2-(4-bromo-1-methyl-1H-pyrazol-3-yl)-6-(5-(difluoro-methyl)-1,3,4-oxadiazol-2-yl)isoindolin-1-one]",95
3,"O=C1c2cc(-c3nnc(C(F)F)o3)cc(F)c2CN1C[C@H]1COCCN1S(=O)(=O)c1ccccc1F [Example 251, 6-(5-(difluoromethyl)-1,3,4-oxadiazol-2-yl)-4-fluoro-2-(((3S)-4-((2-fluorophenyl)-sulfonyl)morpholin-3-yl)-methyl)isoindolin-1-one]",100
4,"O=C1c2cc(-c3nnc(C(F)F)o3)cc(F)c2CN1C[C@H]1COCCN1S(=O)(=O)c1ccc(F)cc1 [Example 252, 6-(5-(difluoromethyl)-1,3,4-oxadiazol-2-yl)-4-fluoro-2-(((3S)-4-((4-fluorophenyl)-sulfonyl)morpholin-3-yl)-methyl)isoindolin-1-one]",99
5,"CC(C)(C)OC(=O)N[C@H]1CCCC[C@H]1N1Cc2ccc(-c3nnc(C(F)F)o3)cc2C1=O [Example 255, tert-butyl ((1S,2R)-2-(6-(5-(difluoromethyl)-1,3,4-oxadiazol-2-yl)-1-oxo-1,3-dihydro-2H-isoindol-2-yl)cyclohexyl)carbamate]",100
6,N[C@H]1CCCC[C@H]1N1Cc2ccc(-c3nnc(C(F)F)o3)cc2C1=O [Example 256],91
7,"CC(F)(F)C(=O)N[C@H]1CCCC[C@H]1N1Cc2ccc(-c3nnc(C(F)F)o3)cc2C1=O [Example 258, N-((1S,2R)-2-(6-(5-(difluoro-methyl)-1,3,4-oxadiazol-2-yl)-1-oxo-1,3-dihydro-2H-isoindol-2-yl)cyclohexyl)-2,2-difluoro-propanamide]",101
8,"O=C1c2cc(-c3nnc(C(F)F)o3)ccc2CN1[C@@H]1CCCC[C@@H]1NC(=O)C1(C(F)(F)F)CC1 [Example 259, N-((1S,2R)-2-(6-(5-(difluoro-methyl)-1,3,4-oxadiazol-2-yl)-1-oxo-1,3-dihydro-2H-isoindol-2-yl)cyclohexyl)-1-(trifluoromethyl)cyclopro-panecarboxamide]",101
9,"O=C1c2cc(-c3nnc(C(F)F)o3)cc(F)c2CN1C[C@H]1COCCN1S(=O)(=O)c1cccc(F)c1 [Example 265, 6-(5-(difluoromethyl)-1,3,4-oxadiazol-2-yl)-4-fluoro-2-(((3S)-4-((3-fluorophenyl)-sulfonyl)morpholin-3-yl)-methyl)isoindolin-1-one]",98
10,"COc1cccc(CN2Cc3ncc(-c4nnc(C(F)F)o4)cc3C2=O)c1 [Example 266, 3-(5-(difluoromethyl)-1,3,4-oxadiazol-2-yl)-6-(3-methoxybenzyl)-6,7-dihydro-5H-pyrrolo[3,4-b]-pyridin-5-one]",99
11,"COc1ccc(CN2Cc3ncc(-c4nnc(C(F)F)o4)cc3C2=O)c(OC)c1 [Example 272, 3-(5-(difluoromethyl)-1,3,4-oxadiazol-2-yl)-6-(2,4-dimethoxybenzyl)-6,7-dihydro-5H-pyrrolo-[3,4-b]pyridin-5-one]",100

# Next, values leading:
row,inhibition at 10 µM [%],Structure (SMILES)
1,100,"N#Cc1cccc(-c2cc(Cl)ccc2N2Cc3ccc(-c4nnc(C(F)F)o4)cc3C2=O)c1 [Example 248, 5′-chloro-2′-(6-(5-(difluoro-methyl)-1,3,4-oxadiazol-2-yl)-1-oxo-1,3-dihydro-2H-isoindol-2-yl)biphenyl-3-carbonitrile]"
2,72,"O=C1c2cc(-c3nnc(C(F)F)o3)ccc2CN1c1cc(Cl)ccc1Br [Example 253, 2-(2-bromo-5-chlorophenyl)-6-(5-(difluoromethyl)-1,3,4-oxadiazol-2-yl)isoindolin-1-one]"
3,102,"O=C(O[C@@H]1CCCC[C@H]1N1Cc2ccc(-c3nnc(C(F)F)o3)cc2C1=O)N1CCCCC1 [Example 254, (1R,2R)-2-(6-(5-(difluoro-methyl)-1,3,4-oxadiazol-2-yl)-1-oxo-1,3-dihydro-2H-isoindol-2-yl)cyclohexyl piperidine-1-carboxylate]"
4,101,"O=C1c2cc(-c3nnc(C(F)F)o3)ccc2CN1[C@@H]1CCCC[C@H]1NCC(F)(F)F [Example 257, 6-(5-(difluoromethyl)-1,3,4-oxadiazol-2-yl)-2-((1R,2R)-2-((2,2,2-trifluoroethyl)amino)-cyclohexyl)isoindolin-1-one]"
5,98,"CC(C)(C(=O)N[C@H]1CCCC[C@H]1N1Cc2ccc(-c3nnc(C(F)F)o3)cc2C1=O)C(F)(F)F [Example 260, N-((1S,2R)-2-(6-(5-(difluoro-methyl)-1,3,4-oxadiazol-2-yl)-1-oxo-1,3-dihydro-2H-isoindol-2-yl)cyclohexyl)-3,3,3-trifluoro-2,2-dimethyl-propanamide]"
6,99,"O=C1c2cc(-c3nnc(C(F)F)o3)ccc2CN1[C@@H]1CCCC[C@@H]1NC(=O)C(F)(F)C(F)(F)F [Example 261, N-((1S,2R)-2-(6-(5-(difluoro-methyl)-1,3,4-oxadiazol-2-yl)-1-oxo-1,3-dihydro-2H-isoindol-2-yl)cyclohexyl)-2,2,3,3,3-pentafluoropropan-amide]"
7,98,"COC(=O)N[C@H]1CCCC[C@H]1N1Cc2ccc(-c3nnc(C(F)F)o3)cc2C1=O [Example 262, methyl ((1S,2R)-2-(6-(5-(difluoromethyl)-1,3,4-oxadiazol-2-yl)-1-oxo-1,3-dihydro-2H-isoindol-2-yl)cyclohexyl)carbamate]"
8,99,"CC(C)(C)OC(=O)N1CCC[C@@H]1CN1Cc2c(F)cc(-c3nnc(C(F)F)o3)cc2C1=O [Example 263, tert-butyl (2R)-2-((6-(5-(difluoromethyl)-1,3,4-oxadiazol-2-yl)-4-fluoro-1-oxo-1,3-dihydro-2H-isoindol-2-yl)methyl)-pyrrolidine-1-carboxylate]"
9,101,"CC(=O)N(c1ccccn1)[C@@H]1CCCC[C@H]1N1Cc2ccc(-c3nnc(C(F)F)o3)cc2C1=O [Example 264, N-((1R,2R)-2-(6-(5-(difluoromethyl)-1,3,4-oxadiazol-2-yl)-1-oxo-1,3-dihydro-2H-isoindol-2-yl)cyclohexyl)-N-(pyridin-2-yl) acetamide]"
10,100,"N#Cc1cccc(-c2ccc(Cl)cc2N2Cc3ccc(-c4nnc(C(F)F)o4)cc3C2=O)c1 [Example 267, 4′-chloro-2′-(6-(5-(difluoro-methyl)-1,3,4-oxadiazol-2-yl)-1-oxo-1,3-dihydro-2H-isoindol-2-yl)biphenyl-3-carbonitrile]"
11,100,"CC(C)(OC(=O)N[C@@H]1CCCC[C@H]1N1Cc2ncc(-c3nnc(C(F)F)o3)cc2C1=O)C(F)(F)F [Example 268, 1,1,1-trifluoro-2-methylpropan-2-yl ((1R,2R)-2-(3-(5-(difluoromethyl)-1,3,4-oxadiazol-2-yl)-5-oxo-5,7-dihydro-6H-pyrrolo[3,4-b]pyridin-6-yl)cyclohexyl)carbamate]"
12,99,"O=C1CCCN1CC(c1ccccc1)N1Cc2ncc(-c3nnc(C(F)F)o3)cc2C1=O (stereo not shown) [Example 269, 3-(5-(difluoromethyl)-1,3,4-oxadiazol-2-yl)-6-(2-(2-oxopyrrolidin-1-yl)-1-phenylethyl)-6,7-dihydro-5H-pyrrolo[3,4-b]pyridin-5-one]"
13,99,"Cn1cc(-c2cc(Cl)ccc2N2Cc3ccc(-c4nnc(C(F)F)o4)cc3C2=O)cn1 [Example 270, 2-(4-chloro-2-(1-methyl-1H-pyrazol-4-yl)phenyl)-6-(5-(difluoromethyl)-1,3,4-oxadiazol-2-yl)-isoindolin-1-one]"
14,100,"Cn1cc(-c2cc(F)ccc2N2Cc3ccc(-c4nnc(C(F)F)o4)cc3C2=O)cn1 [Example 271, 6-(5-(difluoromethyl)-1,3,4-oxadiazol-2-yl)-2-(4-fluoro-2-(1-methyl-1H-pyrazol-4-yl)phenyl)isoindolin-1-one]"
